Data taken from patent US20260258032A1, “TYROSINE KINASE 2 INHIBITORS AND USES THEREOF” (BIOGEN MA INC., priority 2022, published 2026).
Counter-ions that a name gives are not always drawn.

Tests used:
[1] = tested on: Tyk2 kinase activity on STAT4; assay: pSTAT4 cell assay (MSD, NK92 cells); type: cell-based; settings: compounds 1 hr, stimulated 15 minutes
Experimental: The inhibitory potency of compounds of the disclosure against the Tyk2 kinase activity on STAT4 was evaluated using an MSD-platform plate-based assay format. NK92 cells natively expressing STAT4 and Tyk2 were serum-starved to reduce background phosphorylation levels, then cells were treated compounds for 1 hr with a 10-point four-fold dilution series starting at 10 μM. Cells were then stimulated with 30 ng/mL IL2 for 15 minutes. Cells were lysed and […] levels were quantitated using an MSD plate-based assay with anti-STAT4 antibodies. The data were normalized and the percent activity versus log concentration of compound were fitted with a 4-parameter logistic model to generate to generate IC50 curves.

[2] = biological target: T1, JH2 domain of human Tyk2 (Homo sapiens, UniProt P29597); assay: JH2 biochemical assay (TR-FRET probe displacement); type: binding; settings: JH2 biochemical assay
T1 construct: 10×His-tagged TYK2 JH2 domain (amino acid 575-876)
Experimental: The inhibitory potency of compounds of the disclosure against the kinase activity of recombinantly generated JH2 domain of human Tyk2 was evaluated in a plate-based assay using a TR-FRET assay platform. Briefly, 2 nM of recombinant JH2 domain [10×His-tagged TYK2 JH2 domain (amino acid 575-876)] was combined with 2 nM probe ((S)-6-amino-9-(2-carboxy-4-((1-(3-(8-methyl-5-(methylamino)-8H-imidazo[4,5-d]thiazolo[5,4-b]pyridin-2-yl)phenyl)ethyl)carbamoyl)phenyl)-3-iminio-5-sulfo-3H-xanthene-4-sulfonate), 0.1 nM Tb-labeled anti-His antibody, and compounds of disclosure for 60 minutes. Compounds are tested at either […] top concentration, 10 points of 3-fold dilution. The TR-FRET signal […] by compounds and signal was calculated by taking the ratio of fluorescence at 520 nm and 495 nm. The data was normalized and the percent activity versus log concentration of compound was fitted with a 4-parameter logistic model to generate IC50 curves.

T1 sequence (P29597 575-876): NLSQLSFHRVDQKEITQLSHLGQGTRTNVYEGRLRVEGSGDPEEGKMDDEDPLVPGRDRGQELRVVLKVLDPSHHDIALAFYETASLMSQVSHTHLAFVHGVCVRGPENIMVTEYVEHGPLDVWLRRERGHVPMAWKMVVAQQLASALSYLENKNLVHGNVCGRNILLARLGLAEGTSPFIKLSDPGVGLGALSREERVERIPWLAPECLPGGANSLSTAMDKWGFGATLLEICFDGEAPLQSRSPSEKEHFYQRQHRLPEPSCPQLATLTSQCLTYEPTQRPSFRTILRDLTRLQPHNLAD

| Compound | IC50 [1] [µM] | IC50 [2] [µM] |
| --- | --- | --- |
| CC(=O)Nc1cc2c(cn1)C1(CC1)CN2c1cc(NC23CC(C2)C3)nc(C(C)(F)F)n1 [Example 159, N-(1′-(6-(bicyclo[1.1.1]pentan-1-ylamino)-2-(1,1-difluoroethyl)pyrimidin-4-yl)-1′,2′-dihydrospiro[cyclopropane-1,3′-pyrrolo[3,2-c]pyridin]-6′-yl)acetamide trifluoroacetate] | 0.01 to 0.1 | – |
| CC(=O)Nc1cc2c(cn1)C1(CC1)CN2c1cc(C)nc(OCC2COC2)n1 [Example 366, N-(1′-(6-methyl-2-(oxetan-3-ylmethoxy)pyrimidin-4-yl)-1′,2′-dihydrospiro[cyclopropane-1,3′-pyrrolo[3,2-c]pyridin]-6′-yl)acetamide trifluoroacetate] | 0.1 to 1 | – |
| CC(=O)Nc1cc2c(cn1)C1(CC1)CN2c1cc(C)nc(OC2(C)COC2)n1 [Example 365, N-(1′-(6-methyl-2-((3-methyloxetan-3-yl)oxy)pyrimidin-4-yl)-1′,2′-dihydrospiro[cyclopropane-1,3′-pyrrolo[3,2-c]pyridin]-6′-yl)acetamide] | 0.1 to 1 | – |
| CC(=O)Nc1cc2c(cn1)C1(CC1)CN2c1cc(Oc2cnccn2)nc(C(C)(F)F)n1 [Example 146, N-(1′-(2-(1,1-difluoroethyl)-6-(pyrazin-2-yloxy)pyrimidin-4-yl)-1′,2′-dihydrospiro[cyclopropane-1,3′-pyrrolo[3,2-c]pyridin]-6′-yl)acetamide] | ≥ 1 | – |
| CC(=O)Nc1cc2c(cn1)C1(CC1)CN2c1cc(C)nc(-c2cc[nH]n2)n1 [Example 252, N-(1′-(6-methyl-2-(1H-pyrazol-3-yl)pyrimidin-4-yl)-1′,2′-dihydrospiro[cyclopropane-1,3′-pyrrolo[3,2-c]pyridin]-6′-yl)acetamide trifluoroacetate] | 0.1 to 1 | – |
| CC(=O)Nc1cc2c(cn1)C1(CC1)CN2c1cc(C)nc(-c2ccncc2)n1 [Example 107, N-(1′-(6-methyl-2-(pyridin-4-yl)pyrimidin-4-yl)-1′,2′-dihydrospiro[cyclopropane-1,3′-pyrrolo[3,2-c]pyridin]-6′-yl)acetamide] | ≥ 1 | – |
| CC(=O)Nc1cc2c(cn1)C1(CC1)CN2c1cc(OCC2(C)COC2)nc(C(C)(F)F)n1 [Example 139, N-(1′-(2-(1,1-difluoroethyl)-6-((3-methyloxetan-3-yl)methoxy)pyrimidin-4-yl)-1′,2′-dihydrospiro[cyclopropane-1,3′-pyrrolo[3,2-c]pyridin]-6′-yl)acetamide trifluoroacetate] | ≥ 1 | – |
| CC(=O)Nc1cc2c(cn1)C1(CC1)CN2c1cc(C)nc(-c2ncccn2)n1 [Example 108, N-(1′-(6-methyl-[2,2′-bipyrimidin]-4-yl)-1′,2′-dihydrospiro[cyclopropane-1,3′-pyrrolo[3,2-c]pyridin]-6′-yl)acetamide] | ≥ 1 | – |
| CC(=O)Nc1cc2c(cn1)C1(CC1)CN2c1cc(C)nc(-c2cnc(C)s2)n1 [Example 255, N-(1′-(6-methyl-2-(2-methylthiazol-5-yl)pyrimidin-4-yl)-1′,2′-dihydrospiro[cyclopropane-1,3′-pyrrolo[3,2-c]pyridin]-6′-yl)acetamide trifluoroacetate] | ≥ 1 | – |
| CC(=O)Nc1cc2c(cn1)C1(CC1)CN2c1cc(C)nc(C2CC2(C)C)n1 (centres unmarked) [Example 124, N-(1′-(2-(2,2-dimethylcyclopropyl)-6-methylpyrimidin-4-yl)-1′,2′-dihydrospiro[cyclopropane-1,3′-pyrrolo[3,2-c]pyridin]-6′-yl)acetamide] | 0.01 to 0.1 | – |
| COCCOc1nc(C)cc(N2CC3(CC3)c3cnc(NC(C)=O)cc32)n1 [Example 360, N-(1′-(2-(2-methoxyethoxy)-6-methylpyrimidin-4-yl)-1′,2′-dihydrospiro[cyclopropane-1,3′-pyrrolo[3,2-c]pyridin]-6′-yl)acetamide trifluoroacetate] | ≥ 1 | – |
| COC1(c2cc(C)cc(N3CC4(CC4)c4cnc(NC(C)=O)cc43)n2)CCOC1 (centres unmarked) [Example 96, N-(1′-(6-(3-methoxytetrahydrofuran-3-yl)-4-methylpyridin-2-yl)-1′,2′-dihydrospiro[cyclopropane-1,3′-pyrrolo[3,2-c]pyridin]-6′-yl)acetamide] | 0.01 to 0.1 | – |
| CC(=O)Nc1cc2c(cn1)C1(CC1)CN2c1cc(C)nc(-n2nc(C)cc2C)n1 [Example 110, N-(1′-(2-(3,5-dimethyl-1H-pyrazol-1-yl)-6-methylpyrimidin-4-yl)-1′,2′-dihydrospiro[cyclopropane-1,3′-pyrrolo[3,2-c]pyridin]-6′-yl)acetamide] | ≥ 1 | – |
| CC(=O)Nc1cc2c(cn1)C1(CC1)CN2c1cc(C)nc(-c2ccccn2)n1 [Example 112, N-(1′-(6-methyl-2-(pyridin-2-yl)pyrimidin-4-yl)-1′,2′-dihydrospiro[cyclopropane-1,3′-pyrrolo[3,2-c]pyridin]-6′-yl)acetamide] | ≥ 1 | – |
| CCN1CC(Oc2cc(N3CC4(CC4)c4cnc(NC(C)=O)cc43)nc(C(C)(F)F)n2)C1 [Example 148, N-(1′-(2-(1,1-difluoroethyl)-6-((1-ethylazetidin-3-yl)oxy)pyrimidin-4-yl)-1′,2′-dihydrospiro[cyclopropane-1,3′-pyrrolo[3,2-c]pyridin]-6′-yl)acetamide trifluoroacetate] | – | ≥ 1 |
| COc1ccc(-c2cc(C)cc(N3CC4(CC4)c4cnc(NC(C)=O)cc43)n2)cn1 [Example 267, N-(1′-(6′-methoxy-4-methyl-[2,3′-bipyridin]-6-yl)-1′,2′-dihydrospiro[cyclopropane-1,3′-pyrrolo[3,2-c]pyridin]-6′-yl)acetamide trifluoroacetate] | – | 0.1 to 1 |
| CC(=O)Nc1cc2c(cn1)C1(CC1)CN2c1cc(C)nc(C2CC3CCC2O3)n1 (centres unmarked) [Example 102, N-(1′-(2-(7-oxabicyclo[2.2.1]heptan-2-yl)-6-methylpyrimidin-4-yl)-1′,2′-dihydrospiro[cyclopropane-1,3′-pyrrolo[3,2-c]pyridin]-6′-yl)acetamide trifluoroacetate] | – | 0.01 to 0.1 |
| CC(=O)Nc1cc2c(cn1)C1(CCOCC1)CN2c1ccnc(C(C)(F)F)n1 [Example 47, N-(1′-(2-(1,1-difluoroethyl)pyrimidin-4-yl)-1′,2,2′,3,5,6-hexahydrospiro[pyran-4,3′-pyrrolo[3,2-c]pyridin]-6′-yl)acetamide] | – | ≥ 1 |
| CC(=O)Nc1cc2c(cn1)C1(CC1)CN2c1cc(C)nc(C2CCN(C(C)C)CC2)n1 [Example 121, N-(1′-(2-(1-isopropylpiperidin-4-yl)-6-methylpyrimidin-4-yl)-1′,2′-dihydrospiro[cyclopropane-1,3′-pyrrolo[3,2-c]pyridin]-6′-yl)acetamide] | – | ≥ 1 |
| CC(=O)Nc1cc2c(cn1)C1(CC1)CN2c1cc(C)nc(C)n1 [Example 68, N-(1′-(2,6-dimethylpyrimidin-4-yl)-1′,2′-dihydrospiro[cyclopropane-1,3′-pyrrolo[3,2-c]pyridin]-6′-yl)acetamide] | – | 0.01 to 0.1 |
| CC(=O)Nc1cc2c(cn1)C1(CC1)CN2c1cc(O[C@@H]2COC[C@H]2F)nc(C(C)(F)F)n1 (racemic) [Example 150, Trans-rac-N-(1′-(2-(1,1-difluoroethyl)-6-(((3RS,4R)-4-fluorotetrahydrofuran-3-yl)oxy)pyrimidin-4-yl)-1′,2′-dihydrospiro[cyclopropane-1,3′-pyrrolo[3,2-c]pyridin]-6′-yl)acetamide trifluoroacetate] | – | 0.01 to 0.1 |
| CC(=O)Nc1cc2c(cn1)C1(CC1)CN2c1cc(C)cc(-c2cnn(C)c2C(F)F)n1 [Example 262, N-(1′-(6-(5-(difluoromethyl)-1-methyl-1H-pyrazol-4-yl)-4-methylpyridin-2-yl)-1′,2′-dihydrospiro[cyclopropane-1,3′-pyrrolo[3,2-c]pyridin]-6′-yl)acetamide trifluoroacetate] | – | 0.01 to 0.1 |
| CC(=O)Nc1cc2c(cn1)C1(CC1)CN2c1ccnc(C2COC2)n1 [Example 3, N-(1′-(2-(oxetan-3-yl)pyrimidin-4-yl)-1′,2′-dihydrospiro[cyclopropane-1,3′-pyrrolo[3,2-c]pyridin]-6′-yl)acetamide] | – | 0.01 to 0.1 |
| CC(=O)Nc1cc2c(cn1)C1(CC1)CN2c1cc(C)cc(-c2cnn(C3CNC3)c2)n1 [Example 268, N-(1′-(6-(1-(azetidin-3-yl)-1H-pyrazol-4-yl)-4-methylpyridin-2-yl)-1′,2′-dihydrospiro[cyclopropane-1,3′-pyrrolo[3,2-c]pyridin]-6′-yl)acetamide trifluoroacetate] | – | 0.1 to 1 |
| CC(=O)Nc1cc2c(cn1)C1(CCOCC1)CN2c1cccc(C(C)(F)F)n1 [Example 48, N-(1′-(6-(1,1-difluoroethyl)pyridin-2-yl)-1′,2,2′,3,5,6-hexahydrospiro[pyran-4,3′-pyrrolo[3,2-c]pyridin]-6′-yl)acetamide] | – | 0.1 to 1 |
| CC(=O)Nc1cc2c(cn1)C1(CC1)CN2c1cc(C)cc(-c2cnn(C3COC3)c2)n1 [Example 265, N-(1′-(4-methyl-6-(1-(oxetan-3-yl)-1H-pyrazol-4-yl)pyridin-2-yl)-1′,2′-dihydrospiro[cyclopropane-1,3′-pyrrolo[3,2-c]pyridin]-6′-yl)acetamide trifluoroacetate] | – | 0.01 to 0.1 |
